From patent US20100119599A1 (ARCHER PHARMACEUTICALS, INC., priority 2006, published 2010)
Where two headings read alike, the source gives them in different places.

Columns and labels:
[1] = test system: Aβ1-42; experiment: Measurement of Aβ1-42 in culture medium of 7W WT APP751 CHO cells by ELISA; assay type: cell-based, Chinese hamster; conditions: for activity at 5 µM: Cricetulus griseus, 5 μM test compound, CHO cells stably transfected with human APP751, culture medium, ELISA, control DMSO; for Aβ1-42 (% of control): CHO cells that overexpress APP751, zero = below the detection limit of the assay;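 on Aβ1-42 (% of control): 5 µM test compound but RI-coded compounds at 10 µM for 24 hours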
[2] = test system: Aβ1-40; experiment: Measurement of Aβ1-40 in culture medium of 7W WT APP751 CHO cells by ELISA; assay type: cell-based, Chinese hamster; conditions: for activity at 5 µM: Cricetulus griseus, 5 μM test compound, CHO cells stably transfected with human APP751, culture medium, ELISA, control DMSO; for Aβ1-40 (% of control): CHO cells that overexpress APP751, zero = below the detection limit of the assay;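 on all read-outs here: 5 µM test compound but RI-coded compounds at 10 µM for 24 hours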
[3] = Table 1, 0 = no detectable amount, read-out: Aβ1-42 (% of control)
[4] = Table 1, 0 = no detectable amount

SMILES | activity at 5 µM [1, 3] | activity at 5 µM [2, 4] | Aβ1-42 (% of control) [1] | Aβ1-40 (% of control) [2] | further results
CC1(C)CC(=O)C2=C(C1)N(Cc1ccccc1)C(N)=C(C#N)C21CCOCC1 [ST014138, 2-amino-7,7-dimethyl-5-oxo-1-benzylspiro[1,4,6,7,8-pentahydroquinoline-4,4′-2′ H-3′,4,5′,6′-tetrahydropyran]-3-carbonitrile] | 65.3% | 64.1% | – | – | –
CCC(C)OC(=O)C1=C(C)NC2=C(C(=O)CC(c3ccc(OC)cc3)C2)C1c1cc2c(cc1[N+](=O)[O-])OCO2 (stereo not shown) [ST017236, methylpropyl 7-(4-methoxyphenyl)-2-methyl-4-(6-nitro(2H-benzo[d]1,3-dioxolan-5-yl))-5-oxo-1,4,6,7,8-pentahydroquinoline-3-carboxylate] | 98.1% | 61% | – | – | –
COC(=O)C1=C(C)NC2=C(C(=O)CC(c3ccc(Cl)cc3)C2)C1c1ccccc1 (stereo not shown) [ST015218, methyl 7-(4-chlorophenyl)-2-methyl-5-oxo-4-phenyl-1,4,6,7,8-pentahydroquinoline-3-carboxylate] | 0% | 59.3% | – | – | –
CCSCCOC(=O)C1=C(C)NC2=C(C(=O)CC(c3ccccc3)C2)C1c1ccc(Br)cc1 (stereo not shown) [ST017201, 2-ethylthioethyl 4-(4-bromophenyl)-2-methyl-5-oxo-7-phenyl-1,4,6,7,8-pentahydroquinoline-3-carboxylate] | 85.2% | 57.5% | – | – | –
COc1cc(Br)ccc1/C=c1\sc2n(c1=O)C(N)=C(C#N)C(c1ccc(Br)cc1OC)C=2C#N (stereo not shown) [RI_94] | – | – | 81.2 % of control | 73.2 % of control | –
CCCCOC(=O)C1=C(C)NC2=C(C(=O)CC(C)(C)C2)C1c1ccc(Cl)c(Cl)c1 (stereo not shown) [ST215419, butyl 4-(3,4-dichlorophenyl)-2,7,7-trimethyl-5-oxo-1,4,6,7,8-pentahydroquinoline-3-carboxylate] | 0% | 0% | – | – | –
CCc1ccc(C2C(C(=O)OCCOc3ccccc3)=C(C)NC3=C2C(=O)CC(C)(C)C3)cc1 (stereo not shown) [ST014886, 2-phenoxyethyl 4-(4-ethylphenyl)-2,7,7-trimethyl-5-oxo-1,4,6,7,8-pentahydroquinoline-3-carboxylate] | 65.1% | 21.6% | – | – | –
COCCOC(=O)C1=C(C)NC2=C(C(=O)CC(C)(C)C2)C1c1cc(OC)c(OC)c(OC)c1 (stereo not shown) [ST013356, 2-methoxyethyl 2,7,7-trimethyl-5-oxo-4-(3,4,5-trimethoxyphenyl)-1,4,6,7,8-pentahydroquinoline-3-carboxylate] | 82.5% | 62.7% | – | – | –
CCCCOC(=O)C1=C(C)NC2=C(C(=O)CCC2)C1c1ccccc1OCCCC (stereo not shown) [ST013330, butyl 4-(2-butoxyphenyl)-2-methyl-5-oxo-1,4,6,7,8-pentahydroquinoline-3-carboxylate] | 86.5% | 38% | – | – | –
COc1ccc(COC(=O)C2=C(C)NC3=C(C(=O)CCC3)C2c2ccccc2C(F)(F)F)cc1 (stereo not shown) [ST052271, (4-methoxyphenyl)methyl 2-methyl-5-oxo-4-[2-(trifluoromethyl)phenyl]-1,4,6,7,8-pentahydroquinoline-3-carboxylate] | 23.9% | 25.8% | – | – | –
CC1=C(C(=O)Nc2ccccc2)C(c2ccsc2)C(C#N)=C(SCC(=O)N2CCCCCCCCCCC2)N1 (stereo not shown) [RI_33] | – | – | 13.7 % of control | 11.9 % of control | –
CC1=C(C(=O)OCCc2ccccc2)C(c2ccc(C)cc2)C2=C(CC(C)(C)CC2=O)N1 (stereo not shown) [ST015099, 2-phenylethyl 2,7,7-trimethyl-4-(4-methylphenyl)-5-oxo-1,4,6,7,8-pentahydroquinoline-3-carboxylate] | 33.8% | 14.8% | – | – | –
CCOc1ccccc1C1C(C(=O)OCC(C)C)=C(C)NC2=C1C(=O)CC(c1ccc(Cl)cc1)C2 (stereo not shown) [ST017038, 2-methyipropyl 7-(4-chlorophenyl)-4-(2-ethoxyphenyl)-2-methyl-5-oxo-1,4,6,7,8-pentahydroquinoline-3-carboxylate] | 81.9% | 42.7% | – | – | –
COC(=O)C1=CN(Cc2ccc(OC)c(OC)c2)C=C(C(=O)OC)C1c1ccc(OC)c(OC)c1 [ST038162, methyl 4-(3,4-dimethoxyphenyl)-1-[(3,4-dimethoxyphenyl)methyl]-5-(methoxycarbonyl)-1,4-dihydropyridine-3-carboxylate] | – | – | 58.62 % of control | 49.65 % of control | –
CCc1cccc(NC(=O)CSC2=C(C#N)C(c3sccc3Br)C(C(=O)Nc3ccccc3)=C(C)N2)c1 (stereo not shown) [RI_82] | – | – | 67.9 % of control | 67.5 % of control | –
CCc1cccc(NC(=O)CSC2=C(C#N)C(c3sccc3Oc3ccccc3)C(C(=O)Nc3ccccc3)=C(C)N2)c1 (stereo not shown) [RI_81] | – | – | 100 % of control | 73.6 % of control | –

SMILES | activity at 5 µM [1, 3] | activity at 5 µM [2, 4] | Aβ1-42 (% of control) [1] | Aβ1-40 (% of control) [2] | further results
N#CC1=C(N)n2c(s/c(=C\c3ccc(O)cc3)c2=O)=C(C#N)C1c1ccc(O)cc1 (stereo not shown) [ST025034, 5-amino-7-(4-hydroxyphenyl)-2-[(4-hydroxyphenyl)methylene]-3-oxo-4,7-dihydro-1,3-thiazolidino[3,2-a]pyridine-6,8-dicarbonitrile] | – | – | 85.11 % of control | 69.9 % of control | –
C=CCOC(=O)C1=C(C)NC2=C(C(=O)CCC2)C1c1ccc(OCCC)c(OC)c1 (stereo not shown) [ST013183, prop-2-enyl 4-(3-methoxy-4-propoxyphenyl)-2-methyl-5-oxo-1,4,6,7,8-pentahydroquinoline-3-carboxylate] | 66.3% | 78.7% | – | – | –
CCOC(=O)C1=C(C)NC(C)=C(C(=O)OCC)C1C(=O)O [ST007544, 3,5-bis(ethoxycarbonyl)-2,6-dimethyl-1,4-dihydropyridine-4-carboxylic acid] | – | – | – | – | activity at 5 µM ([1]; Table 3, read-out: Aβ-42 (% of control)): 80.1%; activity at 5 µM ([2]; Table 3): 78.7%
CC1=C(C(=O)OC2CCCCC2)C(c2ccc3c(c2)OCO3)C2=C(CC(C)(C)CC2=O)N1 (stereo not shown) [ST216920, cyclohexyl 4-(2H-benzo[3,4-d]1,3-dioxolen-5-yl)-2,7,7-trimethyl-5-oxo-1,4,6,7,8-pentahydroquinoline-3-carboxylate] | 3.82% | 1.4% | – | – | –
CC1=C(C(=O)OCCOc2ccccc2)C(c2ccccc2Cl)C2=C(CC(C)(C)CC2=O)N1 (stereo not shown) [ST015096, 2-phenoxyethyl 4-(2-chlorophenyl)-2,7,7-trimethyl-5-oxo-1,4,6,7,8-pentahydroquinoline-3-carboxylate] | 80% | 28.1% | – | – | –
COC(=O)C1=C(C)NC2=C(C(=O)CC(c3cccs3)C2)C1c1cc(OC)ccc1OC (stereo not shown) [ST052389, methyl 4-(2,5-dimethoxyphenyl)-2-methyl-5-oxo-7-(2-thienyl)-1,4,6,7,8-pentahydroquinoline-3-carboxylate] | 44.9% | 78.3% | – | – | –
COc1cc(/C=c2\sc3n(c2=O)C(N)=C(C#N)C(c2ccc(OC(C)C)c(OC)c2)C=3C#N)ccc1OC(C)C (stereo not shown) [ST025029, 5-amino-7-[3-methoxy-4-(methylethoxy)phenyl]-2-{[3-methoxy-4-(methylethoxy)phenyl]methylene}-3-oxo-4,7-dihydro-1,3-thiazolidino[3,2-a]pyridine-6,8-dicarbonitrile] | – | – | 73.69 % of control | 65.7 % of control | –
CCOC(=O)C1=C(C)NC2=C(C(=O)CCC2)C1c1ccc(OCc2ccc(C)cc2)c(OC)c1 (stereo not shown) [ST028606, ethyl 4-{3-methoxy-4-[(4-methylphenyl)methoxy]phenyl}-2-methyl-5-oxo-1,4,6,7,8-pentahydroquinoline-3-carboxylate] | 52% | 24.2% | – | – | –
CC1=C(C(=O)Nc2ccccc2)C(c2ccsc2)C(C#N)=C(SCC(=O)Nc2ccccc2)N1 (stereo not shown) [RI_6] | – | – | 65.1 % of control | 77.7 % of control | –
COC(=O)C1=C(C)NC2=C(C(=O)CC(c3ccc(Cl)cc3)C2)C1c1ccc(OCc2ccccc2)cc1 (stereo not shown) [ST016953, methyl 7-(4-chlorophenyl)-2-methyl-5-oxo-4-[4-(phenylmethoxy)phenyl]-1,4,6,7,8-pentahydroquinoline-3-carboxylate] | 69.7% | 43.9% | – | – | –
CCOC(=O)C1=C(C)NC(C)=C(C(=O)OCC)C1c1ccc(F)cc1 [ST211500, ethyl 5-(ethoxycarbonyl)-4-(4-fluorophenyl)-2,6-dimethyl-1,4-dihydropyridine-3-carboxylate] | – | – | 19.53 % of control | 20.67 % of control | –
CC1=C(C(=O)Nc2ccccc2)C(c2cccs2)C(C#N)=C(SCC(=O)Nc2ccc(C(C)(C)C)cc2)N1 (stereo not shown) [RI_63] | – | – | 38.8 % of control | 38.2 % of control | –
CCn1c2ccccc2c2cc(C3C(C(=O)OC4CCCC4)=C(C)NC4=C3C(=O)CC(C)(C)C4)ccc21 (stereo not shown) [ST052173, cyclopentyl 4-(9-ethylcarbazol-3-yl)-2,7,7-trimethyl-5-oxo-1,4,6,7,8-pentahydroquinoline-3-carboxylate] | 32.5% | 64.7% | – | – | –
CC1=C(C(=O)Nc2ccccc2)C(Cc2ccccc2)C(C#N)=C(SCC(=O)Nc2cccc(C)c2)N1 (stereo not shown) [RI_34] | – | – | 26.1 % of control | 31.4 % of control | –
CCOc1ccccc1C1C(C(=O)OC2CCCCC2)=C(C)NC2=C1C(=O)CC(C)(C)C2 (stereo not shown) [ST017304, cyclohexyl 4-(2-ethoxyphenyl)-2,7,7-trimethyl-5-oxo-1,4,6,7,8-pentahydroquinoline-3-carboxylate] | 57.2% | 52% | – | – | –
CCN(CC)c1ccc(C2C(C(=O)OCCOC)=C(C)NC3=C2C(=O)CCC3)cc1 (stereo not shown) [ST013256, 2-methoxyethyl 4-[4-(diethylamino)phenyl]-2-methyl-5-oxo-1,4,6,7,8-pentahydroquinoline-3-carboxylate] | 92.8% | 60.2% | – | – | –
